Where two headings read alike, the source gives them in different places.

One test concerns carrageenin oedema. The test is described as follows: Carrageenin oedema test for anti-inflammatory activity. The class given is in vivo, Male Wistar rats. The following applies: rat, per os, aqueous tragacanth suspension, 30 minutes before carrageenin; paw volume 3 hours after carrageenin injection; dose to inhibit the response by 50%; unit assumed. The protocol:
Carrageenin oedema test for anti-inflammatory activity
Male Wistar rats weighing 120-150 g were fasted overnight and then received a test compound per os as an aqueous tragacanth suspension. 30 minutes later, inflammation was induced by the subcutaneous injection of 0.05 ml of a 1% carrageenin suspension into the plantar tissue of a hind paw of each rat [Winter et al., Proc. Soc. […] The anti-oedema activity was measured volumetrically, by assessing the response, as calculated from the following equation: […]
where Vo and V represent, respectively, the paw volume immediately before and 3 hours after the carrageenin injection.
(In general: In the carrageenan paw model, swelling and tenderness develop within hours.)

The test system of a further test is pressure-induced pain. The experiment in a line: Pain test for analgesic activity (modified Randall-Selitto, Brewers' yeast inflamed paw pressure). The test is classed as in vivo, Male Wistar-Imamichi rats. The note with it: read-out: Analgesic activity ED50. The protocol:
Pain test for analgesic activity
This test was conducted according to a modification of the method reported by L. O. Randall and J. J. Selitto in Arch. Int.
Male Wistar-Imamichi rats of 4 weeks of age and weighing 60-90 g were injected with 0.1 ml of a 20% by weight suspension of Brewers' yeast in the right hind paw. […] Each of these was given orally a test compound as an aqueous tragacanth suspension. 1 and 2 hours after administration of the test compound, the pain threshold was determined by observing pain responses (such as struggling or squeaking) when the inflamed or normal paw was subjected to pressure by a machine (Ugo-Basile).

[1] abbreviates: rat, oral, aqueous tragacanth suspension, pain threshold 1 and 2 hours after administration, effective = at least twice mean pain threshold of controls, Litchfield and Wilcoxon.

As a reminder, the ED50 is the dose that gives a 50% effect, or the effect in half of the subjects. On to `CC(C(=O)O)c1ccc(C=C2CCCCC2O)cc1` (stereo not drawn) [A, 2-[4-(2-hydroxycyclohexylidenemethyl)phenyl]propionic acid], for which the Anti-inflammatory activity ID50 in the test on carrageenin oedema was found to be 0.98 mg/kg. Besides, the 50% effective dose (ED50) in the test on pressure-induced pain (setting [1]) turned out to be 0.35 mg/kg.

Regarding `COc1ccc2c(c1)c(CC(=O)O)c(C)n2C(=O)c1ccc(Cl)cc1` [B, Indomethacin], the Anti-inflammatory activity ID50 in the test on carrageenin oedema was 2.2 mg/kg. In addition, the ED50 in the test on pressure-induced pain (Rattus norvegicus, po) was 1.6 mg/kg.

`CC(C(=O)O)c1ccc(C=C2CCCCC2=O)cc1` (stereo not drawn) [C, 2-[4-(2-oxocyclohexylidenemethyl)phenyl]propionic acid]: the Anti-inflammatory activity ID50 in the test on carrageenin oedema worked out at 1.2 mg/kg. Also, the median effective dose (ED50) with pressure-induced pain (setting [1]) was determined as 0.94 mg/kg.

These data come from US4461912A, “Phenylacetic acid derivatives, their preparation and compositions containing them” (Sankyo Company Limited, priority 1981, dated 1984).
